Patent US7825268B2, “Alkoxylactones, alkoxylactams and alkoxythiolactams for controlling processes based on microbial interaction” (Henkel AG & Co. KGaA, priority 2003, dated 2010)

Tested on: Pseudomonas aeruginosa ATCC 15442
Experiment: Biofilm test on glass surfaces (microscope slides, SafraninO staining)
Type: cell-based
Conditions: 6 hours incubation; for biofilm reduction (relative to the control without active substance): first range finding experiments (FIG. 1)
Method: (b) Use of Alkyloxylactones for the Reduction of Biofilms on Glass Surfaces.
The germ Pseudomonas aeruginosa ATCC 15442 is cultivated at 37° C. on Caso-Agar overnight. A CFU (Colony Eorming Unit) of solid medium is incubated in 50 ml Caso-broth at 37° C. for 7 hours and 150 rpm (1. passage). 100 μl germs from the washed liquid culture are carried over into 50 ml fresh Caso-nutrient medium and incubated at 37° C. for approximately 16 hours and 150 rpm. (2. Passage). A germ count of 10^6 CFU/ml is used from this second passage in the biofilm test. For the biofilm test, the germs in the above-mentioned concentration, together with a diluted complete medium (20 times with DGHM-water diluted TBY), are pipetted into a micro-titration plate (6-position chamber), which is used as the miniaturized biofilm test system. The active substances under test are added in the desired concentration to the mixture (3 ml). As controls, first, attempts were made with active substances, but without germs, as the active substances could already have an inherent color (negative control); secondly, diluted complete medium with germs, but without the active substances were also used as controls. In addition, 1 sterile glass plate (microscope slide), size 18×18, on the surface of which the biofilm growth is investigated, is placed into each of the 6-position chambers. For each starting material, triple determinations are carried out, i.e. three glass slides are investigated per starting material. The 6-position plates are shaken for 6 or 24 hours at 30° C. and 60 rpm. After the predetermined incubation times, 1 ml per starting material are removed for germ count determination, diluted in trypton-NaCl solution and plated out on Caso-Agar. The resulting plates are incubated for 24 hours at 37° C. and then counted. The slide glasses are taken out of the 6-positions to be dried at room temperature and then dyed in new 6-positions with 3 ml 0.01% SafraninO-solution (made up in sterile water) for 15 minutes. The colorant solution is then siphoned off, non-bound colorant is removed with water from the slide glasses and the colored slide glasses dried. The colored and dried surfaces of the slide glasses are scanned and evaluated using Corel Draw paint 9. In order to be able to subtract the background value (of the glass) from the measured value, additional untreated slide glasses are also scanned.

[1] = 100 ppm, DMSO control = 100% (FIG. 2)
[2] = 50 ppm and 100 ppm, control without active substance = 100% (FIG. 1)

## CCCCCCCOC1C(=O)OCC1(C)C (stereo not drawn) [Example 188, Heptyloxypantolactone]
[1]
  biofilm reduction (with respect to the DMSO control): more than 40%

## CCCCCCCCO[C@H]1C(=O)OCC1(C)C [Example H33, a-Octyloxy-D-(−)-pantolactone]
100 ppm
  biofilm reduction (relative to the control without active substance): more than 30%

## CCCCOC1CCOC1=O (stereo not drawn) [Example H99, butyloxybutyrolactone]
[2]
  effect on biofilm formation: only a moderate effect

## CCCCOC1C(=O)OCC1(C)C (stereo not drawn) [Example H123, butyloxypantolactone]
[2]
  effect on biofilm formation: only a moderate effect

## CCCCCCCCOC1CCOC1=O (stereo not drawn) [Example H128, a-Octyloxy-γ-butyrolactone]
100 ppm
  biofilm reduction (relative to the control without active substance): approximately 40%
On increasing the concentration of active substance, it precipitated out, result not shown
  reduction in biofilm inhibition: 20%

## CCCCCCCCCCCCCCCCOC1CCOC1=O (stereo not drawn) [hexadecylbutyrolactone, a-hexadecyloxy-γ-butyrolactone]
[1]
  effect on biofilm formation: best biofilm reduction

## O=C1OCCC1O (stereo not drawn) [hydroxybutyrolactone, Hydroxybutyrolactone, reference compound]
[1]
  effect on biofilm formation: did not show any notable effect

## CC1(C)COC(=O)C1O (stereo not drawn) [pantolactone, Pantolactone, reference compound]
[1]
  effect on biofilm formation: did not show any notable effect
